# Tests used:
# [1] = tested on: Lewis Lung Carcinoma (LLC); experiment: In vivo anticancer activity toward Lewis Lung Carcinoma (LLC); conditions: LLC in C57BL mice, 27 at 7.5 mg/kg, CDDP at 1.5 mg/kg
# Text: (§1) Besides, it was as cytotoxic as 19 towards cancer cells while showing a more favorable selectivity index. On these basis, compound 27 was chosen for in vivo experiments against a syngeneic murine solid tumor model, the murine Lewis Lung Carcinoma (LLC). The tumor growth inhibition induced by 27 was compared with that promoted by cisplatin (CDDP), the most common chemotherapeutic drug used in the treatment of lung cancers. Nine days after tumor inoculation, tumor-bearing mice were randomized into vehicle control and treatment groups (8 mice per group). Control mice received the vehicle (0.2%v/v EtOH and 99.8%v/v of a saline solution), whereas treated groups received daily doses of 27 (7.5 mg · kg^−1 in the vehicle solution composed of 0.2%v/v EtOH and 99.8%v/v of saline solution) or CDDP (1.5 mg · kg^−1 in saline solution). Tumor growth was estimated at day 20 (Fig. 7a). As an indication of the adverse side effects, changes in the body weights of tumor-bearing mice were monitored at day 1 and daily from day 9.
# Figure 7 In vivo testing of compound 27. Lewis lung carcinoma (LLC) was implanted i.m. (2 · 10^6 cells inoculum) into the right hind leg of 8-week old imbred C57BL mice. Nine days after tumor inoculation (palpable tumor), tumor-bearing mice were randomized into vehicle control and treatment groups (8 mice per group). Compound 27 was dosed daily at 7.5 mg/kg ip and CDDP was dosed daily at 1.5 mg/kg ip. At day 20, animals were sacrificed (i.e., before tumor can cause the animal discomfort), the legs were amputated at the proximal end of the femur, and the inhibition of tumor growth was determined according to the difference in weight of the tumor-bearing leg and the healthy leg of the animals expressed as % referred to the control animals. Control was constituted by vehicle (0.2%v/v EtOH and 99.8%v/v of saline solution). CDDP was used as positive reference. Both 27 and CDDP were administered at the highest not toxic doses (7.5 and 1.5 mg/kg, respectively), as determined by MTD studies. (a) Average tumor weight (g) after 20 days of treatment with control or compounds. (b) Percentage of reduction in tumor growth after 20 days of treatment with respect to control mice. (c) Body weight changes. The body weight changes of LLC bearing C57BL mice treated with vehicle or tested compounds. Each drug was administered daily after 9 days from the tumor cell inoculum. Weights were measured at day 1 and daily from day 9. Error bars indicate the standard deviation.
# All studies involving animal testing were carried out in accordance with the ethical guidelines for animal research adopted by the University of Padua, acknowledging the Italian regulation (D.L.G.S. 116/92) and European Directive 86/609/EEC as to the animal welfare and protection and the related codes of practice. […]
# [2] = MTD studies (highest not toxic dose); type: in vivo; conditions: C57BL, mouse, in vivo; daily ip; read-out: Highest not toxic dose as determined by MTD studies
# [3] = Body weight changes of LLC bearing mice; type: in vivo; conditions: LLC bearing C57BL mice, 27 daily 7.5 mg/kg ip
# Text: as §1, with “Control mice received the vehicle (0.2%v/v EtOH and 99.8%v/v of a saline solution), whereas treated groups received daily doses of 27 (7.5 mg · kg^−1 in the vehicle solution composed of 0.2%v/v EtOH and 99.8%v/v of saline solution) or CDDP (1.5 mg · kg^−1 in saline solution). Tumor growth was estimated at day 20 (Fig. 7a).” left out
# Figure 7 In vivo testing of compound 27. […] At day 20, animals were sacrificed (i.e., before tumor can cause the animal discomfort), the legs were amputated at the proximal end of the femur, and the inhibition of tumor growth was determined according to the difference in weight of the tumor-bearing leg and the healthy leg of the animals expressed as % referred to the control animals. […] Both 27 and CDDP were administered at the highest not toxic doses (7.5 and 1.5 mg/kg, respectively), as determined by MTD studies. […] Weights were measured at day 1 and daily from day 9. […]
# panel of 48 kinases = experiment: KinomeScan primary screening (POC) at 10 μM; type: binding, human; conditions: POC values
# Text: Synthesized compounds were screened against a panel of 48 kinases selected within the ScanEDGE subset of DiscoverX (http://www.discoverx.com/services/drug-discovery-development-services/kinase-profiling/kinomescan/scanedge). The ScanEDGE includes 97 kinases and is an economical approach to assess compounds selectivity throughout the human kinome. All the wt-TKs along with some relevant mutants of Abl1 (T315I) and of EGFR (L858R and L858R/T790M) were chosen. The remaining 18 targets (3 Tyrosine Kinases-Like, TKLs; 15 Serine-Threonine Kinases, STKs) were selected among the remaining kinases in the ScanEDGE subset on the basis of their well established role in cancer (see Fig. S2 for a graphical representation of the selected kinases with reference to the kinome tree. Some references highlighting the role of each kinase in cancer are also reported in Table S3).
# The compounds were evaluated using the KinomeScan™ platform (http://www.discoverx.com/services/drug-discovery-development-services/kinase-profiling/kinomescan), that measures the ability of the test compound to disrupt the complex between a high affinity ATP-mimic probe immobilized on a solid support and the kinase of interest. The KinomeScan is a very helpful technology for the fast and reliable screening of a number of compounds against a wide and customizable panel of kinases. Besides, it is not based on the use of hazardous radioactive ^32P-ATP and has a very low rate of false positive (<1%)[44]. The screening platform outputs a “Percent of Control” (POC) value, statistically correlated to the dissociation constant (Kd) value (http://www.discoverx.com/tools-resources/leadhunter-study-reports-data-analysis), for each pair of kinase/ligand. The POC is calculated as reported in equation (1):
# Where: test compound signal = amount of kinase still binding the probe after treatment with test compound; negative control signal = amount of kinase still binding the probe after treatment with DMSO (100% control); positive control signal = amount of kinase still binding the probe after treatment with control compound (0% control).
# The compounds were tested at high concentration (10 μM), in order to highlight not only the main target but also the off-targets. The results of the preliminary screening are reported as heat map (Fig. 4; see also Table S4 for all the measured values), in which the compounds are grouped on the basis of the 6 or 5 substituent at the pyrimidine ring.
smiles,measurement,setting,value
O=C(CN1CCOCC1)Nc1cccc(-c2cc(Nc3ccc(NC(=O)Nc4ccccc4)cc3)ncn2)c1 [Compound 27],Inhibition of tumor growth (%),"[1]; daily ip from day 9, day 20, versus vehicle control",84.7%
same,"Average tumor weight (mean±S.D., g)","[1]; daily ip from day 9, day 20",0.075 ± 0.03 g
same,MTD,[2],7.5 mg/kg
same,Body weight loss,[3],< 10%
O=C(Nc1ccccc1)Nc1ccc(Nc2cc(-c3ccccc3)ncn2)cc1 [Compound 19],Selectivity profile (kinases targeted) in primary screening,panel of 48 kinases,class III RTK
